Data from patent US9499493B2, “2,4-pyrimidinediamine compounds and their uses” (Rigel Pharmaceuticals, Inc., priority 2002, dated 2016).
Counter-ions that a name gives are not always drawn.

Legend:
[1] = system: cultured human mast cells (CHMC); assay: CHMC low cell density ionomycin activation: tryptase assay; type: cell-based
[2] = system: cultured human mast cells (CHMC); assay: CHMC low cell density IgE activation: tryptase assay; type: cell-based; conditions: anti-IgE
Method in brief: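 Supernatant tryptase activity, assayed with substrate for 30 min at room temperature, served as the degranulation measure. Mast cells (1000-1500 per well depending on donor) sat 1 hr at 37° C in MT before a 30 min anti-IgE challenge at 37° C.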

Row | Molecule | IC50 [1] [µM] | IC50 [2] [µM]
1 | CNC(=O)COc1cc(Nc2ncc(F)c(Nc3ccc(C)c(O)c3)n2)ccc1C [R926759, 5-Fluoro-N4-(3-hydroxy-4-methylphenyl)-N2-[4-methyl-3-[(N-methylamino)carbonylmethyleneoxy]phenyl]-2,4-pyrimidinediamine] | > 10 | 0.688
2 | CCOC(=O)COc1ccc(Nc2ncc(F)c(Nc3ccc(OCC(=O)OCC)c(Cl)c3)n2)cc1Cl [R926676, N2,N4-Bis[3-chloro-4-(ethoxycarbonylmethyleneoxy)phenyl]-5-fluoro-2,4-pyrimidinediamine] | > 10 | 0.76
3 | CC(C)c1cccc(Nc2nc(Nc3cccc(OCC(=O)NC[C@@H](O)CO)c3)ncc2F)c1 [R940307, (R)—N2-[3-(dihydroxypropylaminocarbonylmethyleneoxy)-phenyl]-5-fluoro-N4-(3-isopropylphenyl)-2,4-pyrimidinediamine] | > 10 | 0.291
4 | Cc1noc(COc2ccc(Nc3nc(Nc4ccc(OC(C)C)cc4)ncc3F)cc2)n1 [R935144, 5-Fluoro-N2-(4-isopropoxyphenyl)-N4-[4-(3-methyl-1,2,4-oxadiazol-5-yl)methyleneoxyphenyl]-2,4-pyrimidinediamine] | > 10 | 0.63
5 | CNC(=O)COc1cccc(Nc2nc(Nc3ccc(OCCN(C)C)cc3)ncc2F)c1 [R909253, N2-[4-(2-N,N-Dimethylaminoethyl)oxyphenyl]-5-fluoro-N4-[3-(N-methylamino)carbonylmethyleneoxyphenyl]-2,4-pyrimidinediamine] | > 10 | 7.96
6 | CC(O)CNC(=O)COc1cccc(Nc2ncc(F)c(Nc3ccc4c(c3)NCCO4)n2)c1 (centres unmarked) [R909251, N4-(1,4-Benzoxazin-6-yl)-5-fluoro-N2-[3-(N-2-hydroxypropylamino)carbonylmethyleneoxyphenyl]-2,4-pyrimidinediamine] | > 10 | 0.138
7 | CC(C)(C)c1cccc(Nc2nc(Nc3cccc(OCC(=O)NCCO)c3)ncc2F)c1 [R940295, N4-(3-tert-Buthylpheny)-5-fluoro-N2-[3-(N-2-hydroxyethylamino)carbonylmethyleneoxyphenyl]-2,4-pyrimidinediamine] | 8.81 | 0.126
8 | COC(=O)c1cc2cc(Nc3nc(Nc4cccc(OCc5noc(C)n5)c4)ncc3F)ccc2o1 [R945131, 5-Fluoro-N4-(2-methoxycarbonylbenzofuran-5-yl)-N2-[3-(5-methyl-1,2,4-oxadiazol-3-yl)methyleneoxyphenyl]-2,4-pyrimidinediamine] | > 10 | 0.77
9 | Cc1cc(Nc2nc(Nc3cccc(OCC(=O)N4CCOCC4)c3)ncc2F)cc(C)c1O [R940254, N4-(3,5-Dimethyl-4-hydroxyphenyl)-5-fluoro-N2-[3-(N-morpholino)carbonylmethyleneoxyphenyl]-2,4-pyrimidinediamine] | > 10 | 0.986
10 | CNC(=O)COc1cccc(Nc2ncc(F)c(Nc3ccc4c(c3)NC(=O)CO4)n2)c1 [R908701] | 7.64 | 0.099
11 | O=C(CNc1cccc(Nc2ncc(F)c(Nc3ccc4c(c3)OCCO4)n2)c1)NCCO [R950195, N4-(3,4-Ethylenedioxyphenyl)-5-fluoro-N2-[3-(N-2-hydroxyethyleneamino)carbonylmethyleneaminophenyl]-5-fluoro-2,4-pyrimidinediamine] | > 10 | 
12 | Cc1cc(Nc2nc(Nc3cccc(OCCN4CCOCC4)c3)ncc2F)cc(C)c1O [R940256, N4-(3,5-Dimethyl-4-hydroxyphenyl)-5-fluoro-N2-[3-[2-(N-morpholino)ethyloxy]phenyl]-2,4-pyrimidinediamine Hydrogen Chloride Salt] | > 10 | 
13 | CNC(=O)C1Cc2cc(Nc3ncc(F)c(Nc4cccc(OC(F)(F)F)c4)n3)ccc2O1 (racemic) [R927040, (±)-N2-[2,3-Dihydro-(N-methylamino)carbonylbenzofuran-5-yl]-5-fluoro-N4-(3-trifluoromethoxyphenyl)-2,4-pyrimidinediamine] | > 10 | 
14 | CNC(=O)COc1cccc(Nc2ncc(F)c(Nc3cccc(N(CCO)CCO)c3)n2)c1 [R950266, N4-(3-Bis(N-hydroxyethyl)aminophenyl)-5-fluoro-N2-[3-(N-methylamino)carbonylmethyleneoxyphenyl]-2,4-pyrimidinediamine] | > 10 | 
15 | N4-(3,4-Ethylenedioxyphenyl)-5-fluoro-N2-[3-(2-N-methylaminoethyl)phenyl]-2,4-pyrimidinediamine Hydrogen Chloride Salt [R926509] | > 10 | 
16 | CNC(=O)COc1cccc(Nc2ncc(F)c(Nc3ccc4c(c3)C(N=[N+]=[N-])CCO4)n2)c1 (centres unmarked) [R950383, N4-(4-Azido-3,4-dihydro-2H-1-benzopyran-6-yl)-5-fluoro-N2-[3-(N-methylamino)carbonylmethyleneoxyphenyl]-2,4-pyrimidinediamine] | > 10 | 
17 | CCOC(=O)CCn1ncc2ccc(Nc3nc(Nc4cccc(O)c4)ncc3F)cc21 [R935292, N4-[1-(2-Ethoxycarbonylethyl)indazoline-6-yl]-5-fluoro-N2-(3-hydroxyphenyl)-2,4-pyrimidinediamine] | > 10 | 

Row | Molecule | IC50 [1] [µM] | IC50 [2] [µM]
18 | CCOC(=O)COc1ccc(Nc2nc(Nc3ccc(OCC(=O)OCC)cc3)c(NC(=O)NC(=O)CCl)c(C(=O)OCC)n2)cc1 [R926589, N2,N4-Bis(4-ethoxycarbonylmethyleneoxyphenyl)-6-ethoxycarbonyl-5-(chloroacetylaminocarbonylamino)-2,4-pyrimidinediamine] | 10 | 
19 | CNC(=O)COc1cccc(Nc2ncc(F)c(Nc3ccc(OC)c(F)c3)n2)c1 [R926892, 5-Fluoro-N4-(3-fluoro-4-methoxyphenyl)-N2-[3-[(N-methylamino)carbonylmethyleneoxy]phenyl]-2,4-pyrimidinediamine] | > 10 | 
20 | O=C(COc1cccc(Nc2ncc(F)c(Nc3ccc4c(c3)OCCO4)n2)c1)N1CCNCC1 [R926504, N4-(3,4-Ethylenedioxyphenyl)-5-fluoro-N2-[3-(N-piperazino)carbonylmethyleneoxyphenyl]-2,4-pyrimidinediamine Hydrogen Chloride Salt] | > 10 | 
21 | Cc1ccc(Nc2nc(Cl)ncc2F)cc1CNC(=O)OC(C)(C)C [Compound R926924] | > 10 | 
22 | O=C(c1cc2cc(Nc3ncc(F)c(Nc4ccc5c(c4)OCCO5)n3)ccc2o1)N1CCCNCC1 [R926768, N4-(3,4-Ethylenedioxyphenyl)-5-fluoro-N2-[2-(N-homopiperazino)carbonylbenzofuran-5-yl]-2,4-pyrimidinediamine Hydrogen Chloride Salt] | > 10 | 
23 | CNC(=O)COc1cccc(Nc2ncc(F)c(Nc3ccc(OC)c(Cl)c3)n2)c1 [R926891, N4-(3-Chloro-4-methoxyphenyl)-5-fluoro-N2-[3-[(N-methylamino)carbonylmethyleneoxy]phenyl]-2,4-pyrimidinediamine] | > 10 | 
24 | CNC(=O)COc1cc(Nc2ncc(F)c(Nc3cccc(O)c3)n2)ccc1C [R926757, 5-Fluoro-N4-(3-hydroxyphenyl)-N2-[4-methyl-3-[(N-methylamino)carbonylmethyleneoxy]phenyl]-2,4-pyrimidinediamine] | > 10 | 
25 | COc1cc(Nc2ncc(F)c(Nc3ccc(OCc4nc(-c5ccccc5)no4)cc3)n2)cc(OC)c1OC [R935367, 5-Fluoro-N4-[4-(3-phenyl-1,2,4-oxadiazol-5-yl)methyleneoxyphenyl]-N2-(3,4,5-trimethoxyphenyl)-2,4-pyrimidinediamine] | > 10 | 
26 | Cc1noc(COc2ccc(Nc3nc(Nc4ccc5c(c4)OCCO5)ncc3F)cc2)n1 [R935145, N2-(3,4-Ethylenedioxyphenyl)-5-fluoro-N4-[4-(3-methyl-1,2,4-oxadiazol-5-yl)methyleneoxyphenyl]-2,4-pyrimidinediamine] | > 10 | 
27 | COC(=O)c1cc2cc(Nc3ncc(F)c(Nc4ccc5cnn(CCC(=O)O)c5c4)n3)ccc2o1 [R935296, N4-[1-(2-carboxyethyl)indazolne-6-yl]-5-fluoro-N2-(2-methoxycarbonylbenzofur-5-yl)-2,4-pyrimidinediamine] | > 10 | 
28 | COC(=O)C(C)Oc1ccc(Nc2ncc(F)c(Nc3ccc(OC(C)C(=O)OC)cc3)n2)cc1 (racemic) [R926254, (±)-N2,N4-Bis[4-methoxycarbonyl(α-methyl)methyleneoxyphenyl]-5-fluoro-2,4-pyrimidinediamine] | 4 | 
29 | Oc1cccc(Nc2ncc(F)c(Nc3cccc(O)c3)n2)c1 [R926461, N2,N4-Bis(3-sodiumphenoxy)-5-fluoro-2,4-pyrimidinediamine] | > 10 | 
30 | O=C(c1cc2cc(Nc3ncc(F)c(Nc4cccc(O)c4)n3)ccc2o1)N1CCNCC1 [R926500, 5-Fluoro-N4-(3-hydroxyphenyl)-N2-[2-(N-piperazino)carbonylbenzofuran-5-yl]-2,4-pyrimidinediamine] | > 10 | 
31 | O=C(c1cc2cc(Nc3ncc(F)c(Nc4ccc5c(c4)OCCO5)n3)ccc2o1)N1CCNCC1 [R926499, N4-(3,4-Ethylenedioxyphenyl)-5-fluoro-N2-[2-(N-piperazino)carbonylbenzofuran-5-yl]-2,4-pyrimidinediamine] | > 10 | 
32 | CNC(=O)CCn1ncc2cc(Nc3ncc(F)c(Nc4ccc(OC(F)(F)F)c(Cl)c4)n3)ccc21 [R935369, N4-(3-Chloro-4-trifluoromethoxyphenyl)-5-fluoro-N2-[1-[2(N-methylaminocarbonyl)ethyl]indazoline-5-yl]-2,4-pyrimidinediamine] | > 10 | 
33 | CNC(=O)C(C)(Oc1cccc(Nc2ncc(F)c(Nc3ccc(OC(C)C)cc3)n2)c1)C(=O)NC [R935196, N2-[3-(1-Bis(N-methylaminocarbonyl)ethoxy)phenyl]-5-fluoro-N4-(4-isopropoxyphenyl)-2,4-pyrimidineamine] | > 10 | 
34 | CNC(=O)COc1cccc(Nc2ncc(F)c(Nc3ccc4c(c3)N(C)CCO4)n2)c1 [R909259, 5-Fluoro-N2-[3-(N-methylaminocarbonylmethyleneoxy)phenyl]-N4-(N-methyl-1,4-benzoxazin-6-yl)pyrimidinediamine] | > 10 | 
